The source of these data is patent US9359423B2, “Protein involved in detection of cancer metastasis and a treatment thereof” (National University of Singapore, priority 2011, dated 2016).

pIC50: −log10 of the molar value.

Data set [1] concerns E-cadherin, b-catenin and paxillin. Briefly: Expression of cell-adhesion proteins after activation of TRPV4 by PDD. Type of data set: cell-based. The following applies: PDD treatment, FIG. 4B. From the text: (§1) FIG. 4A—Silencing of TRPV4 expression was associated with a failure to produce a rise of intracellular Ca2+ upon stimulation with PDD. […] 4C—Activation of TRPV4 by PDD treatment stimulated AKT, FAK and MAPK pathway.
FIG. 5—AKT mediates TRPV4-induced downregulation of E-cadherin and b-catenin. Down regulation of these cytoskeletal proteins correlate with an increase in cancer cell plasticity required for intravasation and extravasation processes during metastasis. Cells were either treated or not treated with PDD (activator of TRPV4) in the presence or absence of AKT inhibitor). Top 1 and 2 panels, inhibition of AKT is confirmed by probing the phosphorylation status of S6, a downstream target of AKT. Bottom 3-5 panels, PDD-induced downregulation of E-cadherin and b-catenin.

In data set [2] the test system is AKT, FAK and MAPK pathway. Briefly: Pathway activation after activation of TRPV4 by PDD. Conditions: PDD treatment, FIG. 4C. Type of data set: cell-based.
Text: as §1

For data set [3], the target named is T1, TRPV4 (Homo sapiens, UniProt Q9HBA0). The following applies: cited from earlier work.
For data set [4], the target named is T2, endogenous TRPV4 (Mus musculus, UniProt Q9EPK8).
T2 construct: endogenous in cells
The following applies: read-out: IC50, endogenous TRPV4-mediated response to 4α-PDH; 4α-PDH stimulation; cited from earlier work.

For data set [5] the following is noted: cited from earlier work.
The target in data set [6] is T1, TRPV4. Conditions: 4α-phorbol 12,13-didecanoate stimulation; cited from earlier work.

T1 sequence (Q9HBA0 whole entry, species assumed): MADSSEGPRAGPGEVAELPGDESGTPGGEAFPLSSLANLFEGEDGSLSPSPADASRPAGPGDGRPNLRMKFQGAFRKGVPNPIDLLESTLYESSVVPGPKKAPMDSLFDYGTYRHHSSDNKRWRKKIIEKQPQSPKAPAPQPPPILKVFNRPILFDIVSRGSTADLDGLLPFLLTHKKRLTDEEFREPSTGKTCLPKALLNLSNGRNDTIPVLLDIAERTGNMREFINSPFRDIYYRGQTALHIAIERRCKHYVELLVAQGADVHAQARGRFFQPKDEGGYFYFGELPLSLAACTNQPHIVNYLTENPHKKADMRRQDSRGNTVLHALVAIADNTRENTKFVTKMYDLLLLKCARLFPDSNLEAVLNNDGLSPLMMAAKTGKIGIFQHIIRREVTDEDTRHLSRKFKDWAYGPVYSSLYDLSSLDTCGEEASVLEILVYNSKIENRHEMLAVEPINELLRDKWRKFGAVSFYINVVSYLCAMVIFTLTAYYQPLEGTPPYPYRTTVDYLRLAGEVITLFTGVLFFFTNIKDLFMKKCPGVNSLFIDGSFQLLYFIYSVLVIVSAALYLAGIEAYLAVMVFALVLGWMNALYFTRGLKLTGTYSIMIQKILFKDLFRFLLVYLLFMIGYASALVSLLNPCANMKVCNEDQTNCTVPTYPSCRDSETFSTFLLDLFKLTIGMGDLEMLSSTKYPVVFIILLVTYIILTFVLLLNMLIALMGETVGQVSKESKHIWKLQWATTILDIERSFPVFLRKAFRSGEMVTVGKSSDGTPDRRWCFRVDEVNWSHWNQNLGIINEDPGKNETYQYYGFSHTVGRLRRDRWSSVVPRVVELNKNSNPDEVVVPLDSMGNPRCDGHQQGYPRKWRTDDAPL
T2 sequence (Q9EPK8 whole entry): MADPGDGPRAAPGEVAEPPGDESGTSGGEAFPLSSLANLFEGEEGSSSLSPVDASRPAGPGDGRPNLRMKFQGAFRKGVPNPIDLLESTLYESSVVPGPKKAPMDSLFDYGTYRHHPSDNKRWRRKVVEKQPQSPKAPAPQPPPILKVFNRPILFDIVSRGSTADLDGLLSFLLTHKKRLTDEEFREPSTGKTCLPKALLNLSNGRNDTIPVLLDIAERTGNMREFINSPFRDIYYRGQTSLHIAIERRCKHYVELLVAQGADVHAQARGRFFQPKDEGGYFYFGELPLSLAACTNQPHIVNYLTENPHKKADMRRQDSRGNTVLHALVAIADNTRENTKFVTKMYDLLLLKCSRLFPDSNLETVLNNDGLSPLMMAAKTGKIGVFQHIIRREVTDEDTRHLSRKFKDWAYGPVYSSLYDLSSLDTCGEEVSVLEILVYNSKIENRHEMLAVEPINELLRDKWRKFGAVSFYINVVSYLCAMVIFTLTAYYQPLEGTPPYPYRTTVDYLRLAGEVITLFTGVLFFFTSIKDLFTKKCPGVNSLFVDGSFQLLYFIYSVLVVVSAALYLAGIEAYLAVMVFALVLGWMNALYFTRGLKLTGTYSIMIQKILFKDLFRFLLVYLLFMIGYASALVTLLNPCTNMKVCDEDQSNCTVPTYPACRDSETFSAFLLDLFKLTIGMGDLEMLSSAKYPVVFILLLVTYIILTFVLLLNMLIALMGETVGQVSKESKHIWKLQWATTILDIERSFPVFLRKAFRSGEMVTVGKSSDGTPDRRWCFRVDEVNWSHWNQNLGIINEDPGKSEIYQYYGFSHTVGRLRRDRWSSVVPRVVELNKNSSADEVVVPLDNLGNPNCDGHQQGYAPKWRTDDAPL

On to `CCCCCCCCCC(=O)O[C@@H]1[C@@H](C)[C@@]2(O)[C@@H](C=C(CO)C[C@@]3(O)C(=O)C(C)=C[C@@H]23)[C@@H]2C(C)(C)[C@]12OC(=O)CCCCCCCCC` [PDD, 4α-phorbol 12,13-didecanoate], for which the “Expression of cell-adhesion proteins like E-cadherin, b-catenin and paxillin” value in data set [1] is reported as “reduced”. In data set [2], the “AKT, FAK and MAPK pathway activation” value is reported as “stimulated”.

With `N.N.N.N.N.N.N.N.N.N.N.N.N.N.[Cl-].[Cl-].[Cl-].[Cl-].[Cl-].[Cl-].[O-2].[O-2].[Ru+3].[Ru+3].[Ru+4]` [Ruthenium red], in data set [3], the “Inhibition of TRPV4” value is listed as “known inhibitor of TRPV4”.

In the case of `Cc1c(C(=O)Nc2cccc(C(F)(F)F)c2)cc(-c2ccccc2)n1CCCN1CCOCC1` [formula 1, 2-Methyl-1-[3-(4-morpholinyl)propyl]-5-phenyl-N-[3-(trifluoromethyl)phenyl]-1H-pyrrole-3-carboxamide], the negative logarithm of the IC50 (pIC50) in data set [4] is 7.66. Moreover, in data set [5] (DMSO), the “Solubility in DMSO” value is reported as 100 mM. For the same compound, in data set [5] (ethanol), the Solubility in ethanol was 25 mM.

With `Cc1c(C(=O)Nc2cccc(C(F)(F)F)c2)cc(-c2ccccc2)n1CCCN1CCOCC1` [formula 3], the “Effect on 4α-PDD-induced Ca2+ responses” value in data set [6] is recorded as “reduces”.

As a reminder, the pIC50 is the negative decadic logarithm of the IC50, by convention in mol/L.
